According to patent US20070073039A1, “Peptides that inhibit viral infections” (priority 2005, published 2007):
No end group written: not given here.

How the values were obtained:
[1] = Preliminary in vivo toxicity in mice
Procedure: As a preliminary measurement of the in vivo cytotoxicity of the peptides 1, 2 and 3 (see Table 4) a group of three mice (BALB/c mice, 7 weeks old, about 23 g) were each injected with 92 μg L-type peptide 1 ( ˜4 mg/kg) in 200 μL PBS (spun 14,000 rpm for 3 minutes before injection). In the control group, each of three mice was given 200 μL PBS containing 5% DMSO. The mice were monitored for acute toxicity during the first 3 hours after injection.
No change in appearance, activity or behavior was observed. The mice were then weighed on days 0, 3, 5, 7 and 10. Peptide-injected mice gained weight at the same rate as the controls.

Dengue-2 = Dengue-2 infection of Vero cells, Intracellular FACS Assay; assay type: cell-based; conditions: 20 μM, Vero cells 3 days post-infection; for % of Dead cells PI: propidium iodide staining
Procedure: Intracellular FACS Assay: Vero cells were seeded for 24 h pre-infection in 6-well plates. Cells were exposed to Dengue-2 in the presence of increasing concentrations of peptide (or DMSO as control). Viruses and peptide were washed away 2 h post-infection. Cells were taken for intracellular staining 3 days post-infection. Cells were stained with appropriate isotype control, Dengue Env, Dengue capsid or tubulin antibodies. Cells were analyzed by FACS.

HCV [2] = assay: HCV focus reduction assay; assay type: cell-based, Hepatitis C virus (JFH-1); conditions: for Inhibition of HCV infection: cell culture model of HCV infection; for Fold Inhibition: inhibition of HCV infection; for Fold Inhibition / % of Mock: peptide approximately 20 μM, Huh-7.5.1 cells, 3 days; for % of Mock: number of HCV foci as % of mock (0.5% DMSO); for Fold inhibition of HCV infection: peptide library screen, approximately 20 μM; for Focus Reduction (72 h): working concentration 18.4-27.5 μM per peptide, Mock 51
Procedure: To identify peptides that display antiviral activity against HCV infection, the peptide library was screened by an HCV focus reduction assay. The peptides were constituted in 100% DMSO at a final concentration 10 mg/mL, and stored in −20° C. The peptide stock solution was diluted 1:200 to a final concentration approximately 20 μM in complete DMEM growth medium containing 50 focus forming units (ffu) of HCV. The virus-peptide mixture was transferred to Huh-7.5.1 cells at a density of 8000 cells per well in a 96-well plate. After adsorption for 4 hours at 37° C., the inoculum was removed. The cells were washed 2 times, overlaid with 120 μL fresh growth medium and incubated at 37° C. After 3 days of culture, the cells were fixed with paraformaldehyde and immunostained with antibody against HCV nonstructural protein NS5A. The numbers of HCV foci were counted under fluorescent microscopy and the result is expressed as percentage (%) of mock with no peptide treatment but containing solvent 0.5% DMSO.
To determine whether the antiviral activity of peptide 1 is dependent on its primary amino acid sequence, four derivative peptides from peptide 1 were synthesized to a purity >95%. The four derivatives having the same composition of amino acids included (1) the reversed the sequence of peptide 1 (also called retro-peptide); (2) scrambled hydrophobic amino acids; (3) scrambled hydrophilic amino acids; and (4) a derivative in which the aspartic acid residues (D) were replaced with proline residues (P). The antiviral activity of the peptides was examined by HCV focus reduction assay at three peptide concentrations: 18 μM, 6 μM and 2 μM, as described above.

HCV [3] = assay: Intracellular HCV RNA by real time RT-QPCR after infection of Huh-7.5.1 cells with and without peptide; assay type: cell-based, Hepatitis C virus (JFH-1); conditions: for HCV RNA fold inhibition 24 h 25 μM / HCV RNA fold inhibition 72 h 25 μM: Huh-7.5.1 cells, MOI 0.1, normalized to GAPDH; for Fold Inhibition on HCV RNA (24 h) / Fold Inhibition on HCV RNA (72 h): working concentration 18.4-27.5 μM per peptide
Procedure: To accurately quantify the inhibitory effect of the selected peptides on HCV infection, intracellular HCV RNA was measured after infection by real time RT-QPCR with and without peptide treatment. The peptide stock solution was diluted 1:100 and mixed with equal volume of viral supernatant (propagated from day 18 virus preparation post transfection) to a final concentration approximately 20 μM. The virus with peptide or 0.5% DMSO solvent control was then used to infect Huh-7.5.1 cells at a multiplicity of infection (MOI) of 0.1. After an adsorption for 4 hours at 37° C., the inoculum was removed. The cells were washed 2 times, overlaid with 120 μL fresh growth medium and incubated at 37° C. At the indicated time points, total cellular RNA was isolated by the guanidine thiocyanate method. The HCV RNA transcript level was measured by real time RT-QPCR with the primers 5′—
normalized to cellular GAPDH levels.
To define the antiviral action of peptide #1 (SEQ ID NO:43), the antiviral activity of a series of N-terminal and C-terminal truncations of peptide 1 was analyzed using the focus reduction assay and by measuring the reduction in intracellular HCV RNA as described.

| Compound | Inhibition of HCV infection (HCV [2]) | Fold Inhibition (HCV [2]) [fold] | % of Mock (HCV [2]) [%] | Fold inhibition of HCV infection (HCV [2]) | HCV RNA fold inhibition 24 h 25 μM (HCV [3]) [fold] | HCV RNA fold inhibition 72 h 25 μM (HCV [3]) [fold] | Focus Reduction (72 h) (HCV [2]) | Fold Inhibition on HCV RNA (24 h) (HCV [3]) [fold] | Fold Inhibition on HCV RNA (72 h) (HCV [3]) [fold] | further results |
| --- | --- | --- | --- | --- | --- | --- | --- | --- | --- | --- |
| CSCC[C@H](NC(=O)[C@H](CO)NC(=O)[C@H](CS)NC(=O)[C@H](CS)NC(=O)[C@@H](NC(=O)[C@@H](NC(=O)[C@H](CC(=O)O)NC(=O)[C@H](CCC(=O)O)NC(=O)[C@@H](NC(=O)[C@H](CC(=O)O)NC(=O)[C@H](C)NC(=O)CNC(=O)[C@H](CO)NC(=O)[C@@H](N)CO)[C@@H](C)O)C(C)C)C(C)C)C(=O)N[C@@H](CO)C(=O)N[C@@H](Cc1ccc(O)cc1)C(=O)N[C@@H](CO)C(=O)N[C@@H](Cc1c[nH]c2ccccc12)C(=O)O [Peptide 3] |  |  |  |  |  |  |  |  |  | In vivo toxicity observation ([1]; 92 μg ( ˜4 mg/kg) in 200 μL PBS, acute toxicity first 3 hours, weight to day 10): Peptides 1, 2 and 3 are Nontoxic in C57BL/6 Mice; Weight(g) (d.0) ([1]; day 0, ˜4 mg/kg injected): 24.1 g; Weight(g) (d.3) ([1]; day 3): 24.1 g; Weight(g) (d.5) ([1]; day 5): 24.7 g; Weight(g) (d.7) ([1]; day 7): 24.7 g; Weight(g) (d.10) ([1]; day 10): 24.7 g |
| DIWDWICEVLSDFK [^N-14mer] |  |  |  |  |  |  |  |  |  | % of Dead cells PI (Dengue-2): 0.76% |
| IFLLALLSCLTVPASAYQ [Peptide 8] | strongly inhibit HCV infection | 42.0 | 2.4 | more than ten-fold | 18 | 7 |  |  |  |  |
| IMDMIAGAHWGVLAGIAY [Peptide 9] | strongly inhibit HCV infection | 42.0 | 2.4 | more than ten-fold | 10 | 22 |  |  |  |  |
| LYGNEGCGWAGWLLSPRG [Peptide 10] |  |  |  |  |  |  |  |  |  | % of Dead cells PI (Dengue-2): 4.05% |
| SWLRDIWD [^C-8mer] |  |  |  |  |  |  | 58 | 1.3 | 1.0 |  |
| SWLRDIWDWI [^C-10mer] |  |  |  |  |  |  | 65 | 0.8 | 0.6 | % GATED, Dengue α-Capsid (9A7) (Dengue-2; DMSO 41.26): 37.21%; % of Dead cells PI (Dengue-2): 1.2% |
| SWLRDIWDWICE [^C-12mer] |  |  |  |  |  |  | 107 | 0.8 | 0.5 |  |
| SWLRDIWDWICEV [^C-13mer] |  |  |  |  |  |  |  |  |  | % of Dead cells PI (Dengue-2): 3.04% |
| SWLRDIWDWICEVLSD [^C-16mer] |  |  |  |  |  |  | 0 | 9852.6 | 234207.1 |  |
| TLVFDITKLLLAIFGPLW [Peptide 6] | strongly inhibit HCV infection | 100.0 | 1.0 | more than ten-fold | 24 | 16 |  |  |  |  |
| WDWICEVLSDFK [^N-12mer] |  |  |  |  |  |  | 38 | 2.2 | 1.4 |  |
| WICEVLSDFK [^N-10mer] |  |  |  |  |  |  | 45 | 1.1 | 1.0 |  |
| WMMLLISQAEAALENLVI [Peptide 4] | strongly inhibit HCV infection | 21.0 | 4.8 | more than ten-fold | 27 | 40 |  |  |  |  |
| YLYGVGSSIASWAIKWEY [Peptide 11] | strongly inhibit HCV infection | 42.0 | 2.4 | more than ten-fold | 9 | 7 |  |  |  |  |
